The source of these data is patent US7332473B2, “Peptides and medicinal compositions containing the same” (priority 2002, dated 2008).

A short description of series [1]: Helical content from circular dichroism spectra. Format: physicochemical. The note with it: 20 mM Tris-HCl buffer (pH 7.4), calculation by Greenfield et al. Here is the method: VIP (peptide 1, SEQ ID NO: 2), peptide 7 (SEQ ID NO: 8) corresponding to 25 residues at the N-terminus of VIP, and peptide 8 (SEQ ID NO: 9), which is a peptide 7 derivative with its methionine-17 being oxidized, were dissolved in a 20 mM Tris-HCl buffer (pH 7.4), and the circular dichroism spectra thereof were examined using the Jasco J-720 (Jasco Corporation). According to analytical calculation of higher-order structure by Greenfield et al., the helical content of peptide 1 was about 50% (FIG. 2).

The subject of series [2] is PC12 cells. Format: cell-based, rat.
Series [3] in a line: physchem. Format: physicochemical. Particulars: pH 7; for remaining at 240 h, 100 μg/ml / remaining at 480 h, 100 μg/ml / remaining at 720 h, 100 μg/ml: buffer or solvent. Here is the method: Adequate amounts of peptides 4, 12, 21, and 23 were fractionated via weighing and then dissolved in distilled water (Otsuka Distilled Water) adjusted at the pH level of 7.0 to bring the final concentration to 100 μg/ml. The resulting solutions were allowed to stand in an incubator at 55° C. (FC-610, Advantec) for 0, 10, 20, and 30 days, respectively, and reverse phase HPLC analysis was carried out (wavelength: 220 nm; mobile phase: acetonitrile (29.5%)/trifluoroacetic acid (0.1%); column: ODS-120T (Tosoh); column temperature: 25° C.) to examine the amount of remaining peptides 4, 12, 21, and 23.

Series [4] in a line: physchem. Type of series: physicochemical. Particulars: for remaining at 168 h, 100 μg/ml: buffer. Here is the method: (§1) Adequate amounts of peptides 4, 12, 21, and 23 were fractionated via weighing and then dissolved in phosphate buffers (aqueous solution of 0.001% sodium dihydrogen phosphate) adjusted to pH levels of 6.0 and 7.0 to bring the final concentration to 100 μg/ml. The resulting solutions were allowed to stand in a thermo-hygrostat (LH-20-11, Nagano Kagaku) at 40° C. and 75% RH for a week, and reverse phase HPLC analysis was carried out (wavelength: 220 nm; mobile phase: acetonitrile (29.5%)/trifluoroacetic acid (0.1%); column: ODS-120T (Tosoh); column temperature: 25° C.) to examine the quantities of remaining peptides 4, 12, 21, and 23.

The nature of series [5]: physchem. The note with it: buffer or solvent. Type of series: physicochemical. As to the method: Adequate amounts of peptides 4, 12, 21, and 23 were fractionated via weighing and then dissolved in distilled water (Otsuka Distilled Water) adjusted at pH levels of 6.0 and 7.0 to bring the final concentration to 10 μg/ml. The resulting solutions were allowed to stand in an incubator at 55° C. (FC-610, Advantec) for 3 days, and reverse phase HPLC analysis was carried out (wavelength: 220 nm; mobile phase: acetonitrile (29.5%)/trifluoroacetic acid (0.1%); column: ODS-120T (Tosoh); column temperature: 25° C.) to examine the quantities of remaining peptides 4, 12, 21, and 23. […] This was particularly apparent at pH 7.0.

The subject of series [6] is bronchial smooth muscle. Nature of the series: Relaxant effect on bronchial smooth muscle (carbachol-constricted trachea, Magnus tank). Details: species or system Hartley male guinea pigs. Particulars: carbachol (3×10^−7 M)-induced constriction; peptide 12 cumulative 10^−9 M to 3×10^−6 M, peptides 21 and 23 single 3×10^−6 M; isoproterenol 10^−6 M = 100% relaxation.
The subject of series [7] is PC-12 cells. The experiment in a line: Effect of inducing neurite formation. The note with it: peptides 100 nM, cultured 3 days, compared to control without peptide and peptide 1. Format: cell-based, rat. Here is the method: Effect of peptides 1, 4, 12, 21, and 23 for inducing neurite formation were tested in the manner described below. PC-12 cells were cultured in Dulbecco's modified minimum essential medium (DMEM) containing 5% horse serum and 5% fetal calf serum in the presence of 5% CO2 and 95% air at 37° C. Cells were separated from the culture flask with the aid of trypsin, counted using a cytometer, and then the concentration was adjusted to 1.0×10^4 cells/ml. The cell-containing liquid medium was added to a Biocoat type IV collagen-coated 24-well dish in amounts of 1 ml each and then cultured in the presence of 5% CO2 and 95% air at 37° C. for 24 hours. The medium was replaced 24 hours later, and peptides (100 nM) were added at that time. The resultant was continuously cultured for 3 days and then photographed. […] The scale bar in each photograph represents 100 μm.

Series [8] is described as follows: physchem. Type of series: physicochemical. Particulars: pH 7; for remaining at 240 h, 100 μg/ml / remaining at 480 h, 100 μg/ml / remaining at 720 h, 100 μg/ml: buffer. As to the method: as §1, with “phosphate buffer (an aqueous” for “phosphate buffers (aqueous”, “adjusted at the” for “adjusted to”, “pH level” for “pH levels”, “of” for “of 6.0 and”, “for 0, 10, 20, and 30 days,” for “for a week,”

Series [9] concerns gastric constriction. Nature of the series: Inhibitory effect on gastric peristaltic movement (carbachol-constricted isolated stomach, Magnus tank). Further details: species or system ICR mice. The note with it: test peptides 10^−6 M, carbachol 3×10^−6 M, 15 minutes after drug administration, level of peptide 9 (control drug) = 100.
Series [10] in a line: Stability of peptide 4 in distilled water, 40° C., 24 hours (reverse phase HPLC). Type of series: physicochemical. As to the method:
Peptide 4, a modified peptide, having a higher Arg content than wild-type VIP was weighed and fractionated to about 1 mg, the fractions were dissolved in distilled water adjusted to pH levels of 4.0, 5.0, 6.0, and 7.0 (Otsuka Distilled Water), and the final concentration was adjusted to 10 μg/ml. The resulting solutions were allowed to stand in an incubator at 40° C. (LH20-11M, Nagano Kagaku) for 24 hours, analysis was carried out via reverse phase HPLC (wavelength: 220 nm; mobile phase: 28% acetonitrile/0.1% trifluoroacetic acid; column: ODS-120T (Tosoh); column temperature: 25° C.), and the amount of remaining peptide 4 was examined.

Read-outs that look alike come from different tables or passages of the source. Ends that are not written are not given here.

In the case of “His-Ser-Asp-Ala-Val-Phe-Thr-Asp-Asn-Tyr-Thr-Arg-Leu-Arg-Lys-Gln-Met-Ala-Val-Lys-Lys-Tyr-Leu-Asn-Ser-Ile-Leu-Asn-NH2 [Peptide 1, reference compound]”, the helical content result in series [1] is listed as “about 50%”. In addition, in series [2], the “neuroprotective effect, viable cell counts (in words)” value (shortened to “neuroprotective effect”) is reported as “significant neuroprotective effects”.
In the case of “H-HSDAVFTANYTRLRRQLAVRRYLAAILGRR-NH2 [Peptide 23]”, in [3], the amount remaining (in general, what is left of the initial amount, in per cent) at 240 h, 100 μg/ml was 62%; the fraction remaining at 480 h, 100 μg/ml is 42%; the fraction remaining at 720 h, 100 μg/ml came out at 30%; the “stability (in words)” value is “still remained 30 days later”. For the same substance, in series [4] (pH 6), the share remaining at 168 h, 100 μg/ml is 100% and the “stability (in words)” value is recorded as “significantly improved compared to that of peptide 4”. In series [5] (pH 6), this substance showed an amount remaining at 72 h, 10 μg/ml of 100%. The “neuroprotective effect” value in series [2] is listed as “significantly higher than that of peptide 1”. Also, the “effect of relaxing the trachea (in words)” value in series [6] is on record as “apparent peptide-addition-dependent effect of relaxing the trachea”. In addition, the “neurite formation (in words)” value in series [7] is reported as “significantly induced neurite formation”. In series [8], this substance registered an amount remaining at 240 h, 100 μg/ml of 98%; a share remaining at 480 h, 100 μg/ml of 89%; a share remaining at 720 h, 100 μg/ml of 73%.
For “His-Ser-Asp-Ala-Val-Phe-Thr-Asp-Asn-Tyr-Thr-Arg-Leu-Arg-Lys-Gln-Met-Ala-Val-Lys-Lys-Tyr-Leu-Asn-Ser-NH2 (HSDAVFTDNYTRLRKQMAVKKYLNS-NH2) [Peptide 7, corresponding to 25 residues at the N-terminus of VIP]”, in series [1], the helical content result was “would retain a good deal of such higher-order structure”.
As for “H-HSDAVFTDNYTRLRRQLAVRRYLAAILGRR-NH2 [Peptide 12]”, in [3], the fraction remaining at 240 h, 100 μg/ml is 49%; the amount remaining at 480 h, 100 μg/ml came out at 34%; the share remaining at 720 h, 100 μg/ml amounted to 18%; the “stability (in words)” value was “still remained 30 days later”. Further, in [4] (pH 6), the share remaining at 168 h, 100 μg/ml was 100% and the “stability (in words)” value is listed as “significantly improved compared to that of peptide 4”. In series [4] (pH 7), this substance returned an amount remaining at 168 h, 100 μg/ml of 90%. Further, the fraction remaining at 72 h, 10 μg/ml in series [5] (pH 6) came out at 94%. In [5] (pH 7), this substance gave a fraction remaining at 72 h, 10 μg/ml of 100%. Besides, in series [2], the “neuroprotective effect” value is “significantly higher than that of peptide 1”. Further, the “effect of relaxing the trachea (in words)” value in series [6] is given as “apparent peptide-addition-dependent effect of relaxing the trachea”. Moreover, the “neurite formation (in words)” value in series [7] was “significantly induced neurite formation”. Moreover, in [8], the fraction remaining at 240 h, 100 μg/ml came out at 84%; the amount remaining at 480 h, 100 μg/ml was 86%; the fraction remaining at 720 h, 100 μg/ml was determined as 73%.
Take “His-Ser-Asp-Ala-Val-Phe-Thr-Asp-Asn-Tyr-Thr-Arg-Leu-Arg-Lys-Gln-Leu-Ala-Val-Lys-Lys-Tyr-Leu-NH2 (HSDAVFTDNYTRLRKQLAVKKYL-NH2) [Peptide 9, reference compound]”: the “Level of constriction inhibition” value in [9] worked out at 100.
Take “H-HSDAVFTDNYTRLRRQLAVRRYLNSILNGRR-NH2 [Peptide 4, reference compound]”: the figures for the fraction remaining at 240 h, 100 μg/ml in series [3] and in series [8] were 0% and 28%, respectively. Besides, the amount remaining at 480 h, 100 μg/ml in [3] came to 0%; in series [8], 13%. Also, the fraction remaining at 720 h, 100 μg/ml in series [3] was 0%. In addition, the entries for the “stability (in words)” value in series [3] and in series [8] were “completely disappeared after storage for 10 days” and “disappeared 30 days later”, respectively. The fraction remaining at 168 h, 100 μg/ml in series [4] (pH 6) was 53%; in series [4] (pH 7), 35%. Besides, the fraction remaining at 24 h in series [10] (buffer or solvent, pH 5.0, distilled water, 10 μg/ml, 40° C., read-out: Amount of remaining peptide) amounted to 90%. Further, the “peptide degradation (in words)” value in [10] (distilled water pH 4.0 to 7.0, 40° C.) is given as “peptide degradation was significant at around the neutral pH region”. Besides, the fraction remaining at 24 h, 10 μg/ml in [10] (pH 4.0, distilled water, 10 μg/ml, 40° C., read-out: Amount of remaining peptide) was 91%; in series [10] (pH 6.0, distilled water, 10 μg/ml, 40° C., read-out: Amount of remaining peptide) it was 93%; in series [10] (pH 7.0, distilled water, 10 μg/ml, 40° C., read-out: Amount of remaining peptide), 84%. In series [5] (pH 7), this substance registered a fraction remaining at 72 h, 10 μg/ml of 67%. For the same substance, the “neuroprotective effect” value in series [2] was “significantly higher than that of peptide 1”. The “neurite formation (in words)” value in [7] is “significantly induced neurite formation”.
Take “His-Ser-Asp-Gly-Ile-Phe-Thr-Asp-Ser-Tyr-Ser-Arg-Tyr-Arg-Arg-Gln-Leu-Ala-Val-Arg-Arg-Tyr-Leu-NH2 (HSDGIFTDSYSRYRRQLAVRRYL-NH2) [Peptide 33]”: in series [9], the “Level of constriction inhibition” value came to 160.
As to “H-HSDAVFTENYTRLRRQLAVRRYLAAILGRR-NH2 [Peptide 21]”, in [3], the amount remaining at 240 h, 100 μg/ml was determined as 29%; the share remaining at 480 h, 100 μg/ml stood at 45%; the share remaining at 720 h, 100 μg/ml turned out to be 10%; the “stability (in words)” value is listed as “still remained 30 days later”. Also, in [4] (pH 6), the fraction remaining at 168 h, 100 μg/ml turned out to be 100% and the “stability (in words)” value is on record as “significantly improved compared to that of peptide 4”. This substance also returned an amount remaining at 168 h, 100 μg/ml in series [4] (pH 7) of 87%. In [5] (pH 6), this substance gave a share remaining at 72 h, 10 μg/ml of 93%. Further, the share remaining at 72 h, 10 μg/ml in [5] (pH 7) worked out at 100%. For the same substance, the “neuroprotective effect” value in [2] is given as “significantly higher than that of peptide 1”. The “effect of relaxing the trachea (in words)” value in series [6] is listed as “apparent peptide-addition-dependent effect of relaxing the trachea”. Moreover, the “neurite formation (in words)” value in series [7] is “significantly induced neurite formation”. In series [8], the amount remaining at 240 h, 100 μg/ml worked out at 100%; the fraction remaining at 480 h, 100 μg/ml stood at 76%; the share remaining at 720 h, 100 μg/ml came out at 59%.
As to “His-Ser-Asp-Ala-Val-Phe-Thr-Asp-Asn-Tyr-Thr-Arg-Leu-Arg-Arg-Gln-Leu-Ala-Val-Arg-Arg-Tyr-Leu-NH2 (HSDAVFTDNYTRLRRQLAVRRYL-NH2) [Peptide 10]”, in series [9], the “Level of constriction inhibition” value stood at 227.
